Converted amounts (≈) assume the structure as drawn.
How the values were obtained:
[1] = biological target: T1, hVR1 (Homo sapiens, UniProt Q8NER1); assay: hVR1 FLIPR (Fluorometric Image Plate Reader) screening assay; format: cell-based; details: inhibition of capsaicin-induced intracellular calcium increase
T1 construct: expressed in transfected cells
Procedure: 1. hVR1 FLIPR (Fluorometric Image Plate Reader) Screening Assay
Transfected CHO cells, stably expessing hVR1 (15,000 cells/well) are seeded in 50 ul media in a black clear bottom 384 plate (Greiner) and grown in a humidified incubator (37° C., 2% CO2), 24-30 hours prior to experiment.
Subsequently, the media is removed from the cell plate by inversion and 2 μM Fluo-4 is added using a multidrop (Labsystems). Following the 40 minutes dye incubation in the dark at 37° C. and 2% CO2, the extracellular dye present is washed away using an EMBLA (Scatron), leaving the cells in 40 ul of assay buffer (1×HBSS, 10 mM D-Glucose, 1 mM CaCl2, 10 mM HEPES, 10×7.5% NaHCO3 and 2.5 mM Probenecid).
FLIPR Assay—IC50 Determination Protocol
For IC50 determinations the fluorescence is read using FLIPR filter 1 (em […]). A is cellular baseline recording is taken for 30 seconds, followed by a 20 μl addition of 10, titrated half-log concentrations of the test compound, yielding cellular concentration ranging from 3 μM to 0.1 nM. Data is collected every 2 seconds for a further 5 minutes prior to the addition of a VR1 agonist solution: 20-50 nM solution of capsaicin by the FLIPR pipettor. The FLIPR continues to collect data for a further 4 minutes. Compounds having antagonistic properties against the hVR1 will inhibit the increase in intracellular calcium in response to the capsaicin addition. This consequently leading to a reduction in fluorescence signal and providing a reduced fluorescence reading, compared with no compound, buffer controls. Data is exported by the FLIPR program as a sum of fluorescence calculated under the curve upon the addition of capsaicin. Maximum inhibition, Hill slope and IC50 data for each compound are generated. […]

[2] = test system: carrageenan-induced heat hyperalgesia; assay: Carrageenan model, heat plantar test (paw withdrawal latency); format: in vivo; details: rat, orally administered; for EC50 / ED50: po; for EC50 / ED50 / EC80: tested at Tmax; for Extrapolated Emax: non-linear regression; for Emax observed: reversal of heat hyperalgesia
[3] = aqueous solubility test; format: physicochemical; details: aqueous medium, pH 7.4, aqueous buffer
[4] = test system: FCA-induced heat hyperalgesia; assay: Freund's Complete Adjuvant (FCA) model, heat plantar test (paw withdrawal latency); format: in vivo; details: rat, orally administered

T1 sequence (Q8NER1 whole entry): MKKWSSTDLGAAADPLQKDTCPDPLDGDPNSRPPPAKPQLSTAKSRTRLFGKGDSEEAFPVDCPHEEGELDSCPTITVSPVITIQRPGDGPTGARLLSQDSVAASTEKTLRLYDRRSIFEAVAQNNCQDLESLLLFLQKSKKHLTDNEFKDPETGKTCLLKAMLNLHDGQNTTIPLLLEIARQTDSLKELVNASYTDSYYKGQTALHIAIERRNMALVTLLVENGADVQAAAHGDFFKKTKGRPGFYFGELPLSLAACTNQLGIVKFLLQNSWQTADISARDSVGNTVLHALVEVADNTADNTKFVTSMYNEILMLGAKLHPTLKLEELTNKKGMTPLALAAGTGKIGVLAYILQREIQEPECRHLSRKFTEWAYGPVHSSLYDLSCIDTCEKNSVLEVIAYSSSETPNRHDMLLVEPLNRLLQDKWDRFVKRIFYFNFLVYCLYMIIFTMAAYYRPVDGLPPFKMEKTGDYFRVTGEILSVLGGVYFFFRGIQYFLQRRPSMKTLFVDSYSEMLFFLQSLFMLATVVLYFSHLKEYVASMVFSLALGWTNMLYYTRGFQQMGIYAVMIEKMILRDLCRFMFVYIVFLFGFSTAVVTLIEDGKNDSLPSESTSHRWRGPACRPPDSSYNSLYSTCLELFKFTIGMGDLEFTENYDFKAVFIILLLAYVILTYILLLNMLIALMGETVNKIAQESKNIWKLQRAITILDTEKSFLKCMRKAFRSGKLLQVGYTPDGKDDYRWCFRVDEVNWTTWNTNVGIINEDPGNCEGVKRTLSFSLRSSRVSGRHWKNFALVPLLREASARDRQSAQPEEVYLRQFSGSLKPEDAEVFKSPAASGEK

| IC50 [1] [nM] | solubility [3] [µM] | SMILES | other results |
| --- | --- | --- | --- |
| 5 |  | CC(NC(=O)Cn1cnc2cccc([N+](=O)[O-])c21)c1ccc(OC(F)(F)C(F)F)cc1 (stereo not shown) [Example 22, 2-(7-nitro-1H-benzimidazol-1-yl)-N-{1-[4-(1,1,2,2-tetrafluoroethoxy)phenyl]ethyl}acetamide] |  |
|  | 94 (≈ 37.5 µg/mL) | CC(NC(=O)Cn1cnc2cccc(C#N)c21)c1ccc(OC(CF)CF)cc1 (stereo not shown) [Example 24, 2-(7-cyano-1H-benzimidazol-1-yl)-N-(1-{4-[2-fluoro-1-(fluoromethyl)ethoxy]phenyl}ethyl)acetamide] |  |
|  | 92 (≈ 37.5 µg/mL) | CCC(NC(=O)Cn1cnc2cccc([N+](=O)[O-])c21)c1ccc(C(F)(F)F)cn1 (stereo not shown) [Example 29, 2-(7-nitro-1H-benzimidazol-1-yl)-N-{1-[5-(trifluoromethyl)pyridin-2-yl]propyl}acetamide] |  |
|  | 97 (≈ 38.2 µg/mL) | CC(NC(=O)Cn1cnc2cccc([N+](=O)[O-])c21)c1ccc(C(F)(F)F)cn1 (stereo not shown) [Example 30, 2-(7-nitro-1H-benzimidazol-1-yl)-N-{1-[5-(trifluoromethyl)pyridin-2-yl]ethyl}acetamide] |  |
|  | 87 (≈ 36.3 µg/mL) | CC(NC(=O)Cn1cnc2cccc(Cl)c21)c1ncc(C(F)(F)F)cc1Cl (stereo not shown) [Example 31, 2-(7-chloro-1H-benzimidazol-1-yl)-N-{1-[3-chloro-5-(trifluoromethyl)pyridin-2-yl]ethyl}acetamide] |  |
|  | 87 (≈ 37.2 µg/mL) | CC(NC(=O)Cn1cnc2cccc([N+](=O)[O-])c21)c1ncc(C(F)(F)F)cc1Cl (stereo not shown) [Example 32, N-{1-[3-chloro-5-(trifluoromethyl)pyridin-2-yl]ethyl}-2-(7-nitro-1H-benzimidazol-1-yl)acetamide] |  |
|  | 100 (≈ 37.3 µg/mL) | CC(C)Oc1ccc(C(C)NC(=O)Cn2cnc3cccc(Cl)c32)cn1 (stereo not shown) [Example 35, 2-(7-chloro-1H-benzimidazol-1-yl)-N-[1-(6-isopropoxypyridin-3-yl)ethyl]acetamide] |  |
| 9 |  | CC(NC(=O)Cn1cnc2cccc([N+](=O)[O-])c21)c1ccc(OC(F)(F)F)cc1 (stereo not shown) [Example 36, 2-(7-nitro-1H-benzimidazol-1-yl)-N-{1-[4-(trifluoromethoxy)phenyl]ethyl}acetamide] |  |
| 6 |  | CC(NC(=O)Cn1cnc2cccc([N+](=O)[O-])c21)c1ccc(C(F)(F)F)cc1 (stereo not shown) [Example 37, 2-(7-nitro-1H-benzimidazol-1-yl)-N-{1-[4-(trifluoromethyl)phenyl]ethyl}acetamide] |  |
|  | 86 (≈ 33 µg/mL) | CC(C)Oc1ccc(C(C)NC(=O)Cn2cnc3cccc([N+](=O)[O-])c32)cn1 (stereo not shown) [Example 38, N-[1-(6-isopropoxypyridin-3-yl)ethyl]-2-(7-nitro-1H-benzimidazol-1-yl)acetamide] |  |
| 1 |  | CC(NC(=O)Cn1cnc2cccc([N+](=O)[O-])c21)c1ccc(OC2CCCC2)c(F)c1 (stereo not shown) [Example 39, N-{1-[4-(cyclopentyloxy)-3-fluorophenyl]ethyl}-2-(7-nitro-1H-benzimidazol-1-yl)acetamide] |  |
| 3 |  | CC(NC(=O)Cn1cnc2cccc([N+](=O)[O-])c21)c1ccc(C2CC2)cc1 (stereo not shown) [Example 40, N-[1-(4-cyclopropylphenyl)ethyl]-2-(7-nitro-1H-benzimidazol-1-yl)acetamide] |  |
|  | 82 (≈ 28.6 µg/mL) | C#Cc1ccc(C(C)NC(=O)Cn2cnc3cccc([N+](=O)[O-])c32)cc1 (stereo not shown) [Example 41, N-[1-(4-ethynylphenyl)ethyl]-2-(7-nitro-1H-benzimidazol-1-yl)acetamide] |  |
|  | 77 (≈ 26 µg/mL) | C#Cc1ccc(C(C)NC(=O)Cn2cnc3cccc(Cl)c32)cc1 (stereo not shown) [Example 42, 2-(7-chloro-1H-benzimidazol-1-yl)-N-[1-(4-ethynylphenyl)ethyl]acetamide] |  |
|  | 100 (≈ 50.5 µg/mL) | CC(NC(=O)Cn1cnc2cccc([N+](=O)[O-])c21)c1ccc(OC2CCN(C)CC2)c(C(F)(F)F)c1 (stereo not shown) [Example 46, N-{1-[4-[(1-Methylpiperidin-4-yl)oxy]-3-(trifluoromethyl)phenyl]ethyl}-2-(7-nitro-1H-benzimidazol-1-yl)acetamide] |  |
| 8 |  | CO[C@@H](C)COc1ccc(C(C)NC(=O)Cn2cnc3cccc([N+](=O)[O-])c32)cc1C(F)(F)F (stereo partly drawn) [Example 47, N-{1-[4-{[(2S)-2-Methoxypropyl]oxy}-3-(trifluoromethyl)phenyl]ethyl}-2-(7-nitro-1H-benzimidazol-1-yl)acetamide] |  |
| 7 |  | CC(COc1cccc(C(F)(F)F)c1)NC(=O)Cn1cnc2cccc([N+](=O)[O-])c21 (stereo not shown) [Example 48, N-{1-methyl-2-[3-(trifluoromethyl)phenoxy]ethyl}-2-(7-nitro-1H-benzimidazol-1-yl)acetamide] |  |

Further lines, the compound ahead of its results:

| SMILES | IC50 [1] [nM] | solubility [3] [µM] | other results |
| --- | --- | --- | --- |
| CC(C)Oc1ccc([C@H](C)NC(=O)Cn2cnc3cccc([N+](=O)[O-])c32)cc1 [Example 1, N-[(1S)-1-(4-isopropoxyphenyl)ethyl]-2-(7-nitro-1H-benzimidazol-1-yl)acetamide] | 1 |  |  |
| C[C@H](NC(=O)Cn1cnc2cccc([N+](=O)[O-])c21)c1ccc(OC(CF)CF)cc1 [Example 2, N-((1S)-1-{4-[2-fluoro-1-(fluoromethyl)ethoxy]phenyl}ethyl)-2-(7-nitro-1H-benzimidazol-1-yl)acetamide] |  |  | EC50 [2]: 105 nM; ED50 [2]: 1.3 µmol/kg; Extrapolated Emax [2]: 79%; Emax observed [2]: 79%; EC80 [2]: 170 nM |
| C[C@H](NC(=O)Cn1cnc2cccc([N+](=O)[O-])c21)c1ccc(OCCF)cc1 [Example 3, N-{(1S)-1-[4-(2-fluoroethoxy)phenyl]ethyl}-2-(7-nitro-1H-benzimidazol-1-yl)acetamide] |  | 90 (≈ 34.8 µg/mL) |  |
| C#CC(C)Oc1ccc([C@H](C)NC(=O)Cn2cnc3cccc([N+](=O)[O-])c32)cc1 (stereo partly drawn) [Example 4, N-((1S)-1-{4-[(1-methylprop-2-yn-1-yl)oxy]phenyl}ethyl)-2-(7-nitro-1H-benzimidazol-1-yl)acetamide] | 3 |  |  |
| COCC(C)Oc1ccc([C@H](C)NC(=O)Cn2cnc3cccc([N+](=O)[O-])c32)cc1 (stereo partly drawn) [Example 5, N-{(1S)-1-[4-(2-methoxy-1-methylethoxy)phenyl]ethyl}-2-(7-nitro-1H-benzimidazol-1-yl)acetamide] |  | 97 (≈ 40 µg/mL) |  |
| CCOc1ccc([C@H](C)NC(=O)Cn2cnc3cccc([N+](=O)[O-])c32)cc1 [Example 6, N-[(1S)-1-(4-ethoxyphenyl)ethyl]-2-(7-nitro-1H-benzimidazol-1-yl)acetamide] |  | 72 (≈ 26.5 µg/mL) |  |
| CC(NC(=O)Cn1cnc2cccc([N+](=O)[O-])c21)c1ccc(OCC(F)F)nc1 (stereo not shown) [Example 9, N-{1-[6-(2,2-difluoroethoxy)pyridin-3-yl]ethyl}-2-(7-nitro-1H-benzimidazol-1-yl)acetamide] |  | 98 (≈ 39.7 µg/mL) |  |
| CC(NC(=O)Cn1cnc2cccc([N+](=O)[O-])c21)c1ccc(OC2CCCC2)nc1 (stereo not shown) [Example 12, N-{1-[6-(cyclopentyloxy)pyridine-3-yl]ethyl}-2-(7-nitro-1H-benzimidazol-1-yl)acetamide] | 5 |  |  |
| CC(NC(=O)Cn1cnc2cccc([N+](=O)[O-])c21)c1ccc(OCC(F)(F)F)cc1 (stereo not shown) [Example 14, 2-(7-nitro-1H-benzimidazol-1-yl)-N-{1-[4-(2,2,2-trifluoroethoxy)phenyl]ethyl}acetamide] |  | 63 (≈ 26.6 µg/mL) |  |
| CC[C@H](C)Oc1ccc([C@H](C)NC(=O)Cn2cnc3cccc([N+](=O)[O-])c32)cc1 [Example 15, N-[(1S)-1-(4-{[(1S)-1-methylpropyl]oxy}phenyl)ethyl]-2-(7-nitro-1H-benzimidazol-1-yl)acetamide] | 1 |  |  |
| CC(NC(=O)Cn1cnc2cccc([N+](=O)[O-])c21)c1ccc(C(F)(F)Cl)cc1 (stereo not shown) [Example 16, N-(1-{4-[chloro(difluoro)methyl]phenyl}ethyl)-2-(7-nitro-1H-benzimidazol-1-yl)acetamide] | 10 |  |  |
| CC(NC(=O)Cn1cnc2cccc([N+](=O)[O-])c21)c1ccc(OCC(F)F)cc1 (stereo not shown) [Example 19, N-{1-[4-(2,2-difluoroethoxy)phenyl]ethyl}-2-(7-nitro-1H-benzimidazol-1-yl)acetamide] |  | 75 (≈ 30.3 µg/mL) |  |
| C[C@H](NC(=O)Cn1cnc2ccc(F)c(F)c21)c1ccc(C(C)(C)C)cc1 [Example 52, N-[(1S)-1-(4-tert-butylphenyl)ethyl]-2-(6,7-difluoro-1H-benzimidazol-1-yl)acetamide] |  |  | EC50 [2]: 500 nM; ED50 [2]: 37.4 µmol/kg; Extrapolated Emax [2]: >100%; Emax observed [2]: 74%; EC80 [2]: 1400 nM; EC50 ([4]; po, tested at Tmax): 1600 nM; ED50 ([4]; po, tested at Tmax): 120 µmol/kg; Extrapolated Emax ([4]; non-linear regression): >100%; Emax observed ([4]; reversal of heat hyperalgesia): 78%; EC80 ([4]; tested at Tmax): 4600 nM |

Source: patent US8168668B2, “Compounds” (AstraZeneca AB, priority 2005, dated 2012)
